Assay results reported in patent US7402575B2, “Methods of treating inflammation” (priority 2003, dated 2008).
“Also recorded” adds a separate entry of the source.

Tests used:
Format in all cases: cell-based, dog
lysozyme c (Lzm-S) [1] = target: T1, lysozyme c (Lzm-S) (Canis lupus familiaris, UniProt P81709); assay: Inhibition of Lzm-S's myocardial depressant activity (isometric tension) in right ventricular trabecular preparation; conditions: for Attenuation of the reduction in isometric tension, inhibitor added after Lzm-S: Lzm-S 10^−7M added before the inhibitor; for Isometric tension following pre-treatment with sugar: Lzm-S 10^−7M, sugar 10^−3M added before Lzm-S; for Inhibition of Lzm-S's depressant effect on isometric tension: inhibitor 10^−3M added before Lzm-S, paced 0.5 Hz
T1 construct: Lzm-S was purified in a manner described by Grobler et al (14); from tissue
T1 sequence (P81709 1-130): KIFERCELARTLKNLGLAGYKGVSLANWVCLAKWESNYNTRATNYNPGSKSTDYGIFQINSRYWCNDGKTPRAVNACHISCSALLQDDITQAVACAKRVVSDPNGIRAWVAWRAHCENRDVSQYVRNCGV
Experimental: In subsequent experiments, the objective was to determine whether pretreatment of Lzm-S with the proteolytic enzyme proteinase-K reduced the extent to which myocardial depression developed in the in vitro preparation (7). Proteinase-K (attached to beaded agarose; Sigma Chemical, St Louis, Mo.) was added to the pure Lzm-S preparation. The effects of proteinase-K treated and nontreated Lzm-S on isometric tension were compared between the samples. Since proteinase-K is a non-specific proteolytic enzyme, a specific competitive inhibitor of lysozyme, TAC (chitotriose) was subsequently examined to determine whether it prevented the depression in isometric tension observed in the in vitro preparation (16,17).
In one set of experiments, it was determined whether TAC prevented the reduction in tension observed with Lzm-S. A dose of 10^−3M TAC (based on preliminary experiments) was added to the organ bath before the addition of Lzm-S. Lzm-S was then added to bring the final concentrations to 10^−10M, 10^−9M, 10^−8M, and 10^−7M in sequential steps. In a related set of experiments, the effect of TAC was studied under a similar protocol in which the ventricular trabecular preparation was paced at 1 Hz instead of 0.5 Hz. The objective was to determine whether the higher frequency altered the inhibitory response of TAC. In a third set of experiments, the sequence of adding TAC and Lzm-S was reversed. Lzm-S (10^−7M) was initially added to the preparation, after which TAC at bath concentrations of 10^−6M, 10^−5M, 10^−4M, 10^−3M were sequentially added. The objective was to determine whether TAC could attenuate the effect of Lzm-S on reducing the isometric response after an initial depression in isometric tension had already been attained.
The right ventricular (RV) preparation used in this study has also been described (49,6). Briefly, mongrel dogs (3 to 10 kg) were anesthetized with pentobarbital. The hearts were removed, flushed with 50 ml of Krebs-Henseleit solution (KH), and placed in ice-cold KH bubbled with a mixture of 95% O2 and 5% CO2. Three to four thin trabeculae (<1 mm diameter) were obtained from the right ventricle and were tied at each end with 6-O silk thread. Each thin muscle was suspended in a vertical constant temperature bath (5 ml) that contained KH (in mM: NaCl, 118; KCl, 4.7; CaCl2 2.5; MgSO4, 1.2; KH2PO4, 1.4; NaHCO3, 25; and dextrose, 11). The muscle was stimulated electrically via punctate platinum bipolar electrodes with rectangular pulses (1 ms duration) at an intensity of 50% above threshold delivered at intervals of 2,000 ms. The trabeculae were stretched to optimal length.
Inhibitory activities of N-acetylglucosamine (NAG), N,N′ diacetylglucosamine (NAG-NAG: N,N′ diacetylchitobiose), and N,N′,N″,N′″ tetraacetylglucosamine (NAG-NAG-NAG-NAG: N,N′,N″,N′″-tetraacetylchitotetraose) were examined (Sigma Corp Canada, Oakville Ontario). These are structurally similar to TAC, but have a different number of NAG units (17). Two somewhat related sugars were also examined to see if there was potential for blocking the activity of lysozyme. These included D-cellotriose and N-aceytllactosamine. D-cellotriose includes three glucose residues linked by beta (1-4) glycosidic linkages, while N acetyllactosamine includes N-acetylglucosamine and galactose residues linked by beta (1-4) glycosidic linkages (12).
After baseline tension was determined, either the sugar or placebo was placed into respective organ baths. The concentration of the sugar used was 10^−3M based on the inventors' previous experiments with TAC 49), while the concentrations of lysozyme were 10^−9, 10^−8, and 10^−7M, respectively. Measurements were obtained at 5 minute intervals. The changes in isometric tension measured from baseline were compared between the treated and placebo baths. […]

[2] = tested on: right ventricular trabecular preparation; assay: Effect of the substance itself on isometric tension in right ventricular trabecular preparation
Experimental: Aliquots of the 10-30 KD plasma fraction (0.05 to 1 ml) were then added to a right ventricular (RV) trabecular preparation to test for the presence of FCS activity. The RV preparation has previously been described (6,7). Briefly, mongrel dogs (3 to 10 kg) were anesthetized with pentobarbital, and their hearts were removed. Three to four thin trabeculae (<1 mm diameter) were obtained from the right ventricle and were suspended in a vertical constant temperature bath (5 ml) that contained Krebs Henseleit (KH) solution. The muscle was stimulated electrically at 0.5 Hz. Aliquots of plasma fractions (from 0.05 to 1 ml) were added to respective organ baths at 5 minute intervals. The changes observed in the pre and septic plasma fractions were expressed relative to tensions found at baseline (i.e. prior to the addition of the sample). An increase in the depressant activity in the septic plasma fraction relative to that found in the presepsis sample was indicative of an increase in FCS.
The effect of purified Lzm-S on myocardial depression was then studied in the ventricular trabecular preparation. In initial experiments, the objective was to compare Lzm-S prepared from septic and nonseptic spleens to see if there was any difference between the two preparations. Although no differences were apparent by SDS-PAGE gel, different isoforms of the enzyme could have developed in sepsis thereby increasing its potential to cause myocardial depression. Aliquots of the septic and nonseptic preparations were added (at 5 minute intervals) to respective organ baths, and the changes in isometric tension were then compared between Lzm-S obtained from spleens of septic and nonseptic animals.
The right ventricular (RV) preparation used in this study has also been described (49,6). Briefly, mongrel dogs (3 to 10 kg) were anesthetized with pentobarbital. The hearts were removed, flushed with 50 ml of Krebs-Henseleit solution (KH), and placed in ice-cold KH bubbled with a mixture of 95% O2 and 5% CO2. […]
After baseline tension was determined, either the lectin or placebo was placed into respective organ baths. […]

lysozyme c (Lzm-S) [3] = target: T1, lysozyme c (Lzm-S); assay: Inhibition of Lzm-S's myocardial depressant activity (isometric tension) in right ventricular trabecular preparation; conditions: Lzm-S 10^−7M first, then inhibitor 10^−3M at 15 min intervals (Example 4)

SMILES	Attenuation of the reduction in isometric tension, inhibitor added after Lzm-S (lysozyme c (Lzm-S) [1])	Isometric tension following pre-treatment with sugar (lysozyme c (Lzm-S) [1])	Attenuation of Lzm-S's depressant activity at higher pacing rate (lysozyme c (Lzm-S) [1]; TAC 10^−3M before Lzm-S, paced 1 Hz)	Inhibition of Lzm-S's depressant effect on isometric tension (lysozyme c (Lzm-S) [1])	Effect of the substance by itself on isometric tension [2]	Isometric tension, inhibitor added after myocardial depression had already been produced by lysozyme (lysozyme c (Lzm-S) [3])	Inhibition of Lzm-S's depressant effect on isometric tension (lysozyme c (Lzm-S) [1]; listed as N,N′ diacetylchitobiose)	Inhibition of Lzm-S's depressant effect on isometric tension (lysozyme c (Lzm-S) [1]; listed as diacetylchitobiose)
CC(=O)N[C@H]1[C@H](O[C@H]2[C@H](O)[C@@H](NC(C)=O)C(O)O[C@@H]2CO)O[C@H](CO)[C@@H](O[C@@H]2O[C@H](CO)[C@@H](O)[C@H](O)[C@H]2NC(C)=O)[C@@H]1O (stereo partly drawn) [TAC, N,N′,N″ triacetylglucosamine]	treatment attenuated the reduction in isometric tension; also recorded: attenuated the decrease in isometric tension as compared to when no intervention was instituted	approximately 77 % of baseline	still observed at this higher heart rate	significantly less than that found in the nontreated group	no effect on isometric tension; also recorded: modest depressant effect	55 % of baseline	–	–
CC(=O)N[C@H]1[C@H](O[C@H]2[C@H](O)[C@@H](NC(C)=O)C(O)O[C@@H]2CO)O[C@H](CO)[C@@H](O)[C@@H]1O (stereo partly drawn) [chitobiose, N,N′ diacetylglucosamine]	attenuated the decrease in isometric tension as compared to when no intervention was instituted	approximately 90 % of baseline	–	–	modest depressant effect	65 % of baseline	completely blocked lysozyme's depressant activity	inhibited the depressant effect of Lzm-S
